We go through 1 substance from US7482008B1, “Human T cell reactive feline protein (TRFP) isolated from house dust and uses therefor” (Merck Patent GmbH, priority 1989, dated 2009).

For one test, the system named is T cell. Description: T cell reactivity of dimeric recombinant chain 1 and alkali treated TRFP. The format is cell-based.
In a further test the test system is IgE. As to the kind of experiment: IgE binding of dimeric recombinant chain 1 and alkali treated TRFP.

Consider “mild alkali treated TRFP: mild alkali treated TRFP”, for which the T cell reactivity entry with T cell was “maintains T cell reactivity”. Further, the IgE binding entry in the test on IgE is “markedly reduced IgE binding”.
